Experimental findings from US9156822B2, “Functionally selective ligands of dopamine D2 receptors” (The University of North Carolina at Chapel Hill, priority 2010, dated 2015) are described below.

“Also recorded” adds a separate entry of the source. Like-named read-outs stand apart in the source and are kept apart here.

The target of series [1] is T1, D2 receptors (Homo sapiens (Human), UniProt P14416). The series can be described thus: D2 β-arrestin recruitment (Tango) assay. It counts as cell-based. On the procedure: The next day, cells were plated in white, clear-bottom, 384-well plates (Greiner, 10,000 cells/well, 50 μl/well) in DMEM containing 1% dialyzed fetal bovine serum. […] Data were normalized to vehicle (0%) and quinpirole (100%) controls and regressed using the sigmoidal dose-response function built into GraphPad Prism 4.0.
Target sequence in this assay (P14416 whole entry, looked up): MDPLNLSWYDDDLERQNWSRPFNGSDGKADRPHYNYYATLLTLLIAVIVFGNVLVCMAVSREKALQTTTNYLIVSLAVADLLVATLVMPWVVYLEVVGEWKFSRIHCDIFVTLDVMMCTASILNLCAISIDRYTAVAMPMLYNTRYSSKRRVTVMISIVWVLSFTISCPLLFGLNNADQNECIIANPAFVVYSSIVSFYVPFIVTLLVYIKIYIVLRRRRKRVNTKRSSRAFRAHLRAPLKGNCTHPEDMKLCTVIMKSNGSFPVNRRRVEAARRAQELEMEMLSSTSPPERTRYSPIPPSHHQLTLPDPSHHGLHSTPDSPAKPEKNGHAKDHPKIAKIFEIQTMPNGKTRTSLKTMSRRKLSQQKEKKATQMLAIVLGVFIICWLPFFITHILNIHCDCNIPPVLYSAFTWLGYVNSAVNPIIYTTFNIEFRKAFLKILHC
In general terms: Arrestin recruitment assays detect the binding of arrestin to an activated receptor.

The target in series [2] is T1, D2 receptors. Nature of the series: CHO-D2 radioligand binding assay ([3H]N-methylspiperone competition). To be noted: read-out: D2 Binding Ki ± SEM.
Target sequence in this assay (P14416 whole entry): as the sequence (P14416 whole entry, looked up) above
A further series deals with hD2 receptors (Homo sapiens (Human), UniProt P14416). The series can be described thus: D2 mediated cAMP GloSensor assay. On cAMP (GloSensor) activity in words (merged EC50/Emax cell): key: neutral: Neutral ligands are either antagonists or are inactive. To be noted: for Emax: read-out: cAMP (GloSensor) Emax. It counts as cell-based.
The target in a further series is hD2L dopamine receptor (Homo sapiens (Human), UniProt P14416). Nature of the series: pERK high-content assay. Type of series: cell-based.
For series [3], the target named is T2, 5HT2C (Homo sapiens (Human), UniProt P28335). To be noted: read-out: 5HT2C/binding (Ki).
A further series concerns the target 5HT2A (Homo sapiens (Human), UniProt P28223). Nature of the series: 5HT2A FLIPR (Ca2+ mobilization). Type of series: cell-based. A general note: Calcium assays in cells follow changes in intracellular calcium, usually with a dye or a luminescent sensor.
For series [4], the target named is T2, 5HT2C. Nature of the series: 5HT2C FLIPR (Ca2+ mobilization). Type of series: cell-based.
In the next series the target is H1-histamine receptor (Homo sapiens (Human), UniProt P35367). The series can be described thus: H1 binding.
The test system of series [5] is wild-type and β-arrestin-2 knockout mice. To be noted: i.p., 5.0 mg/kg (haloperidol 2.0 mg/kg), 30 and 60 min.
Series [6] has as its target T3, 5HT1A (Homo sapiens (Human), UniProt P08908). The series can be described thus: 5HT1A cAMP biosensor. It counts as cell-based.
In series [7] the target is T4, 5HT2B (Homo sapiens (Human), UniProt P41595). To be noted: read-out: 5HT2B/binding (Ki).
Series [8] concerns the target T4, 5HT2B. The series can be described thus: biochemical.
Series [9] deals with T2, 5HT2C. Nature of the series: biochemical.
For series [10], the target named is T4, 5HT2B. The series can be described thus: cell-based.
Series [11] addresses T4, 5HT2B.
Series [12] has as its target T3, 5HT1A. The series can be described thus: 5HT1A binding.
Where [13] appears, read: HTLA cells, read-out: β-arrestin (Tango) EC50.
Where [14] appears, read: normalized to quinpirole (100%).
[15] abbreviates: CHO-D2 membranes, [3H]N-methylspiperone.
The mark [16] stands for this setting: HEK293T, isoproterenol-stimulated cAMP.
The mark [17] stands for this setting: normalized to quinpirole, negative = inverse agonist.

Chain of hD2 receptors (P14416 whole entry): as the sequence (P14416 whole entry, looked up) above
T2 sequence (P28335 33-458, species assumed): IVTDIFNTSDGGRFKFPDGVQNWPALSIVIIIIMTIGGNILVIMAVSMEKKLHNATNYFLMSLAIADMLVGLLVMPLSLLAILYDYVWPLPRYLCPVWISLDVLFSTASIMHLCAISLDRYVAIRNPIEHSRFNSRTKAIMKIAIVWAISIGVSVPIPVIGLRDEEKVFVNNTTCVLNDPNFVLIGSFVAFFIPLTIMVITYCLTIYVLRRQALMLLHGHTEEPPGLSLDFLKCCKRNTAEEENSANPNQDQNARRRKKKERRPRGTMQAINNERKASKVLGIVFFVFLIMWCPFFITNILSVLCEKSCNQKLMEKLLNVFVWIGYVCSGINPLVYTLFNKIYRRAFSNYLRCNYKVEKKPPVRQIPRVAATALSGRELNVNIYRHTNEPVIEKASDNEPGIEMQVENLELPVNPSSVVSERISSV
T4 sequence (P41595 whole entry, species assumed): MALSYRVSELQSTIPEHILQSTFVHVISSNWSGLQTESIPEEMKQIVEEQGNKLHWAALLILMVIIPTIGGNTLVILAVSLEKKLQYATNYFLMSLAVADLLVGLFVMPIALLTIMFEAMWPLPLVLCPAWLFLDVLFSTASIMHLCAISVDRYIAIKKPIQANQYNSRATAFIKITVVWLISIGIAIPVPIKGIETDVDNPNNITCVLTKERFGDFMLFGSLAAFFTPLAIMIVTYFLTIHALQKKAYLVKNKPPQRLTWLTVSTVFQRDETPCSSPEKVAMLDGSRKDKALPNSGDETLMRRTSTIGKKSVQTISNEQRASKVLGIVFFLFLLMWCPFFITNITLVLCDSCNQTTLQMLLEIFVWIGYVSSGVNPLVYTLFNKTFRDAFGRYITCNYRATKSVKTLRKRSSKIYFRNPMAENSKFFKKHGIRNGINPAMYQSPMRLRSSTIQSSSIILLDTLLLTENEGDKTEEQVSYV
Chain of hD2L dopamine receptor (P14416 whole entry): as the sequence (P14416 whole entry, looked up) above
Chain of H1-histamine receptor (P35367 whole entry): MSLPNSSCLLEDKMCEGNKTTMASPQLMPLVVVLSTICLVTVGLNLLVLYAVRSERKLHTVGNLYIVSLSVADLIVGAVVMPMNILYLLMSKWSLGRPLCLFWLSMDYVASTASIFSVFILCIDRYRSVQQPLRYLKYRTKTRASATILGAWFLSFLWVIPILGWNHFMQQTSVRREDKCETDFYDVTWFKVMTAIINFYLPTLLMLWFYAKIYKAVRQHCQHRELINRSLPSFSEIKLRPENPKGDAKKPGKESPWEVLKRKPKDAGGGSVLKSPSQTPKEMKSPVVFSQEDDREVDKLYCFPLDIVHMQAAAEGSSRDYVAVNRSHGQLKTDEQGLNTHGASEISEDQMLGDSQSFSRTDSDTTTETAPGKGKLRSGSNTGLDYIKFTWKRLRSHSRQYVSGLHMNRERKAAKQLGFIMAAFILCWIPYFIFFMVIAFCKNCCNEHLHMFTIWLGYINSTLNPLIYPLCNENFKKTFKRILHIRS
Description for hD2L dopamine receptor: On day 1 of the assay, cells were seeded onto black clear-bottom tissue culture-treated 96-well plates (Greiner, BioOne). On day 2 of the assay, cells were washed with serum-free medium (Ham's F-12, penicillin and streptomycin) and incubated in 100 μL serum-free medium overnight.
Immunofluorescence: Automatic multichannel pipetters were used for liquid handling and multichannel vacuum manifolds for aspirations. Each tested concentration was typically measured in triplicate or quadruplicate. For concentration curves, half-log-dilutions were used. Drug dilutions were prepared in stimulation medium (serum-free medium, 100 mg/L ascorbic acid). 100 μM dopamine and 1 μM PMA (phorbol 12-myristate 13-acetate) were used as positive controls. Medium only was used as a negative control. Specificity of the response was confirmed by pretreatment for 5 min with 10 μM of the antagonist spiperone and in experiments using wild type CHO cells.
Cells were stimulated on day 3 by fast addition of 50 μL equilibrated 3× drug dilutions in a tissue culture incubator for 5 min. Plates were placed on ice, the medium was aspirated, and 100 μL/well of freshly prepared ice-cold fixing buffer (4% formaldehyde and 0.5 mM CaCl2 in PBS) solution was added. After 30 min fixing at room temperature, the plates were washed with 350 μL/well PBS/Ca (0.5 mM CaCl2 in PBS) and permeabilized for 20 min in 100 μL/well 0.3% Triton X-100 in PBS/Ca. […] Plates were washed three times with 250 μL/well washing buffer, post-fixed for 10 min in fixing buffer, washed with 250 μl PBS/Ca, filled with 200 μL/well PBS/Ca, sealed with transparent adhesive plate seals, and stored at 4° C.
The Alexa594 light path was used for the target signal, Alexa488 for whole cell staining, and Hoechst for the nuclear staining. Images were analyzed using the CellProfiler software. […] Concentration curves were analyzed in GraphPad Prism by fitting against a sigmoidal dose-response model and normalization to the dopamine curve.

Usually Emax stands for the size of the effect at its maximum, as opposed to the concentration needed. Broadly, the melting point is the temperature of the solid-liquid transition. On to `O=c1ccc2ccc(OCCCN3CCCN(c4cccc(Cl)c4Cl)CC3)cc2[nH]1` [Compound 15, 7-(3-(4-(2,3-dichlorophenyl)-1,4-diazepan-1-yl)propoxy)quinolin-2(1H)-one], for which the melting point was 117 to 118 °C. Further, the EC50 on D2 receptors [1] (setting [13]) was found to be 2.2 nM. Further, the Emax at D2 receptors [1] (setting [14]) was determined as 84%. Further, the Ki at D2 receptors [2] (setting [15]) turned out to be 3.4 ± 0.2 nM. On hD2 receptors (setting [16]), the EC50 worked out at 13 nM. At hD2 receptors (setting [17]), the Emax was found to be 64%.
Compound `Clc1cccc(N2CCN(CCCOc3ccc4scnc4c3)CC2)c1Cl` [Compound 23, 5-(3-(4-(2,3-dichlorophenyl)piperazin-1-yl)propoxy)benzo[d]thiazole] showed a melting point of 127 to 129 °C. Further, the “β-arrestin (Tango) % activ at 1 μM” value on D2 receptors [1] is listed as 48%. For the same compound, on D2 receptors [1] (setting [13]), the EC50 stood at 107 nM. The Emax at D2 receptors [1] (setting [14]) stood at 91%. Moreover, at D2 receptors [2] (setting [15]), the Ki turned out to be 30 ± 5 nM. The same compound registered an EC50 at hD2 receptors (setting [16]) of 9.8 nM. Further, on hD2 receptors (setting [17]), the Emax is -16%.
`O=C1NCCc2ccc(OCCCN3CCCN(c4cccc(Cl)c4Cl)CC3)cc21` [Compound 5, 7-(3-(4-(2,3-dichlorophenyl)-1,4-diazepan-1-yl)propoxy)-3,4-dihydroisoquinolin-1(2H)-one] returned a melting point of 116 to 117 °C. Moreover, at D2 receptors [1], the “β-arrestin (Tango) % activ at 1 μM” value is 13%. Moreover, the EC50 at D2 receptors [1] (setting [13]) amounted to 8 nM. For the same compound, the Emax at D2 receptors [1] (setting [14]) was 47%. Also, the Ki on D2 receptors [2] (setting [15]) was found to be 5.7 ± 0.8 nM. The compound also came in with an EC50 on hD2 receptors (setting [16]) of 5.6 nM. Also, the Emax on hD2 receptors (setting [17]) was -16%.
`O=c1[nH]c2ccc(OCCCN3CCCN(c4cccc(Cl)c4Cl)CC3)cc2[nH]1` [Compound 19, 5-(3-(4-(2,3-dichlorophenyl)-1,4-diazepan-1-yl)propoxy)-1H-benzo[c]imidazol-2(3H)-one] returned a melting point of 148 to 150 °C. In addition, at D2 receptors [1] (setting [13]), the EC50 came out at 8.5 nM. In addition, the Emax on D2 receptors [1] (setting [14]) came out at 48%. The Ki at D2 receptors [2] (setting [15]) amounted to 4.5 ± 0.2 nM. The “cAMP (GloSensor) activity in words (merged EC50/Emax cell)” value (shortened to “cAMP … (merged EC50/Emax cell)”) on hD2 receptors is reported as “neutral”.
`O=C1CCc2ccc(Oc3cccc(CN4CCN(c5cccc(Cl)c5Cl)CC4)c3)cc2N1` [Compound 30, 7-(3-((4-(2,3-dichlorophenyl)piperazin-1-yl)methyl)phenoxy)-3,4-dihydro quinolin-2(1H)-one] showed a melting point of 182 to 183 °C. On D2 receptors [1], the EC50 came to 297 nM and the “β-arrestin (Tango) % activ at 1 μM” value worked out at 9%. Moreover, at D2 receptors [1] (setting [14]), the Emax worked out at 58%. On D2 receptors [2] (setting [15]), the Ki is 113 ± 18 nM. Besides, at hD2 receptors, the “cAMP … (merged EC50/Emax cell)” value is on record as “neutral”.
`Clc1cccc(N2CCN(CCCCOc3ccc4scnc4c3)CC2)c1Cl` [Compound 36, 5-(4-(4-(2,3-dichlorophenyl)piperazin-1-yl)butoxy)benzo[d]thiazole] returned a melting point of 93 to 94.5 °C. In addition, on D2 receptors [1], the EC50 was found to be 59 nM and the “β-arrestin (Tango) % activ at 1 μM” value is listed as 13%. Besides, the Emax on D2 receptors [1] (setting [14]) was 64%. For the same compound, the Ki at D2 receptors [2] (setting [15]) was found to be 17 ± 3 nM. For the same compound, the “cAMP … (merged EC50/Emax cell)” value at hD2 receptors is given as “neutral”.
`Clc1cccc(C2CCN(CCCOc3ccc4scnc4c3)CC2)c1Cl` [Compound 22, 5-(3-(4-(2,3-dichlorophenyl)piperidin-1-yl)propoxy)benzo[d]thiazole]: at D2 receptors [1], the EC50 was 51 nM and the “β-arrestin (Tango) % activ at 1 μM” value is given as 59%. The “β-arrestin (Tango) Emax” value on D2 receptors [1] (setting [14]) amounted to 100%. On D2 receptors [2] (setting [15]), the Ki was 75 ± 12 nM. Further, on hD2L dopamine receptor (CHO-hD2L cells, read-out: p-ERK EC50), the EC50 was 58 nM. For the same compound, the Emax at hD2L dopamine receptor (normalized to dopamine, read-out: p-ERK Emax) worked out at 50%. The “cAMP … (merged EC50/Emax cell)” value at hD2 receptors is listed as “neutral”.
Usually IC50 stands for the concentration that gives 50% inhibition. Read a high IC50 as weaker potency. On to `O=C1CCc2ccc(OCCCCN3CCCN(c4cccc(Cl)c4Cl)CC3)cc2N1` [Compound 2, 7-(4-(4-(2,3-dichlorophenyl)-1,4-diazepan-1-yl)butoxy)-3,4-dihydroquinolin-2(1H)-one], for which the Ki is 115 nM on 5HT2C [3]; 4.5 nM at H1-histamine receptor; 0.6 nM at 5HT2B [7]; 0.6 to 250 nM on 5HT2B [8]; 0.6 to 250 nM at 5HT2C [9]; 0.6 to 250 nM on 5HT1A [12]. Besides, the Ki at 5HT1A [12] (read-out: 5HT1A/binding (Ki)) amounted to 60 nM. Also, the “functional mode at 5HT2A” value on 5HT2A is given as “antagonists”. Moreover, the 50% inhibitory concentration (IC50) is 3600 nM against 5HT2C [4] and 115 nM at 5HT2B [10]. Besides, at 5HT2C [4], the “functional mode at 5HT2C” value is “antagonists”. Besides, the “catalepsy (latency to move, inclined screen test)” value in series [5] (wild-type mice, listed as UNC0006) is reported as “do not induce catalepsy”; in series [5] (β-arrestin-2 knockout mice, listed as UNC0006) it was “induced catalepsy; also recorded: inducing catalepsy”. In addition, the values for the EC50 on 5HT1A [6] and on 5HT1A [6] (read-out: 5HT1A/cAMP (EC50)) were above 1000 nM and 2500 nM, respectively. On 5HT2B [11], the “functional mode at 5HT2B” value is recorded as “antagonists”.
In turn, `Clc1cccc(N2CCN(CCCOc3ccc4cn[nH]c4c3)CC2)c1Cl` [Compound 20, 6-(3-(4-(2,3-dichlorophenyl)piperazin-1-yl)propoxy)-1H-indazole] displayed a melting point of 159 to 161 °C. Besides, the “β-arrestin (Tango) % activ at 1 μM” value on D2 receptors [1] is given as 45%. Moreover, on D2 receptors [1] (setting [13]), the EC50 came out at 59 nM. The Emax at D2 receptors [1] (setting [14]) is 90%. Besides, the Ki on D2 receptors [2] (setting [15]) stood at 104 ± 13 nM. Further, at hD2 receptors (setting [16]), the EC50 amounted to 9.7 nM. Further, the Emax on hD2 receptors (setting [17]) was -22%.
Take `Clc1cccc(N2CCCN(CCCOc3ccc4scnc4c3)CC2)c1Cl` [Compound 8, 5-(3-(4-(2,3-dichlorophenyl)-1,4-diazepan-1-yl)propoxy)benzo[d]thiazole]: the melting point was in the range of 93 to 94 °C. In addition, the Emax on hD2 receptors (setting [17]) was -26%.
`Clc1cccc(C2CCN(CCCCOc3ccc4scnc4c3)CC2)c1Cl` [Compound 21, 5-(4-(4-(2,3-dichlorophenyl)piperidin-1-yl)butoxy)benzo[d]thiazole] yielded a melting point of 79 to 81 °C. Moreover, the “β-arrestin (Tango) % activ at 1 μM” value at D2 receptors [1] is 26%. Also, at D2 receptors [1] (setting [13]), the EC50 worked out at 82 nM. Moreover, the Emax on D2 receptors [1] (setting [14]) turned out to be 81%. In addition, the Ki on D2 receptors [2] was found to be 42 ± 4 nM. For the same compound, on hD2 receptors, the EC50 amounted to 21 nM and the Emax was -27%.
With `O=C(CCCN1CCC(O)(c2ccc(Cl)cc2)CC1)c1ccc(F)cc1` [haloperidol, reference compound], the “catalepsy (latency to move, inclined screen test)” value in series [5] (β-arrestin-2 knockout mice) is listed as “inducing catalepsy”.
`O=C1NCCc2ccc(OCCCCN3CCC(c4cccc(Cl)c4Cl)CC3)cc21` [Compound 33, 7-(4-(4-(2,3-dichlorophenyl)piperidin-1-yl)butoxy)-3,4-dihydroisoquinolin-1(2H)-one] yielded a melting point of 113 to 114 °C. Further, on D2 receptors [1], the EC50 amounted to 24 nM and the “β-arrestin (Tango) % activ at 1 μM” value was 26%. Further, the Emax on D2 receptors [1] (setting [14]) was 64%. Also, the Ki at D2 receptors [2] (setting [15]) came out at 20 ± 3 nM. The “cAMP … (merged EC50/Emax cell)” value at hD2 receptors was “neutral”.
